Holding throughout (format): biochemical
One assay has as its target FGFR1 (Homo sapiens (Human), UniProt P11362). In words: FGFR enzymatic assay (FRET peptide phosphorylation), FGFR1. Conditions: FGFR1 enzyme 0.02 nM, ATP 210 μM. Here is the method:
(§1) The inhibitor potency of the exemplified compounds was measured in an enzyme assay that measures peptide phosphorylation using FRET measurements to detect product formation. Inhibitors were serially diluted in DMSO and a volume of 0.5 μL was transferred to the wells of a 384-well plate. For FGFR3, a 10 μL volume of FGFR3 enzyme (Millipore) diluted in assay buffer (50 mM HEPES, 10 mM MgCl2, 1 mM EGTA, 0.01% Tween-20, 5 mM DTT, pH 7.5) was added to the plate and pre-incubated for 5-10 minutes. Appropriate controls (enzyme blank and enzyme with no inhibitor) were included on the plate. […] The plate was incubated at 25° C. for 1 hr. […] The plate was allowed to equilibrate for ˜1 hr before scanning the wells on a PheraStar plate reader (BMG Labtech).
(§2) The enzymes were purchased from Millipore or Invitrogen.
(§3) GraphPad prism3 was used to analyze the data. The IC50 values were derived by fitting the data to the equation for a sigmoidal dose-response with a variable slope. Y=Bottom+(Top−Bottom)/(1+10^((LogIC50−X)*HillSlope)) where X is the logarithm of concentration and Y is the response.

Another assay concerns the target FGFR2 (Homo sapiens (Human), UniProt P21802). The assay is described as follows: FGFR enzymatic assay (FRET peptide phosphorylation), FGFR2. To be noted: FGFR2 enzyme 0.01 nM, ATP 100 μM. Here is the method: as §1, §2, §3
The next assay has as its target FGFR3 (Homo sapiens (Human), UniProt P22607). The assay is described as follows: FGFR enzymatic assay (FRET peptide phosphorylation), FGFR3. Conditions: FGFR3 enzyme (Millipore), ATP 140 μM. The procedure: as §1, §3

Sequence of FGFR2 (P21802 22-821): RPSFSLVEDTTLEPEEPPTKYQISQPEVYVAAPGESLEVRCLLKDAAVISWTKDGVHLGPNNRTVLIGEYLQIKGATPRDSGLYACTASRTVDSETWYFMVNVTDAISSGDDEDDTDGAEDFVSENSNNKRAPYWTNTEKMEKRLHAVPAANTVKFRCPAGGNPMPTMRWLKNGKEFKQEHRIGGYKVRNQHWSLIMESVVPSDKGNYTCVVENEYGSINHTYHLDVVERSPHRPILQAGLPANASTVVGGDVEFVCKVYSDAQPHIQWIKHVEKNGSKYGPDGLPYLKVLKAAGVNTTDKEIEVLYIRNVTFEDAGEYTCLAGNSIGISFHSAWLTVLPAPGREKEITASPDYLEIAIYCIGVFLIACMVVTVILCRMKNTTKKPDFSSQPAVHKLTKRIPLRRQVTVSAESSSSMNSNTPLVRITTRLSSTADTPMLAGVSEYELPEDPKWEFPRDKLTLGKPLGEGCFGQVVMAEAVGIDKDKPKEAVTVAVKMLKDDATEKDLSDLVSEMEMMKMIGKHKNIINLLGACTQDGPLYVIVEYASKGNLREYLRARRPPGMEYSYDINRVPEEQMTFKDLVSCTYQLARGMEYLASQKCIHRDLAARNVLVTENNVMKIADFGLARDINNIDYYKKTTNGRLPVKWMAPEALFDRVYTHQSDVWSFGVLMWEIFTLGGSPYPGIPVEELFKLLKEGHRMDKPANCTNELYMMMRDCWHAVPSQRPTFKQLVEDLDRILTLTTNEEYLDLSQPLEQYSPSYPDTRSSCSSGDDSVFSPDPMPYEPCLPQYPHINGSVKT
Sequence of FGFR1 (P11362 22-822): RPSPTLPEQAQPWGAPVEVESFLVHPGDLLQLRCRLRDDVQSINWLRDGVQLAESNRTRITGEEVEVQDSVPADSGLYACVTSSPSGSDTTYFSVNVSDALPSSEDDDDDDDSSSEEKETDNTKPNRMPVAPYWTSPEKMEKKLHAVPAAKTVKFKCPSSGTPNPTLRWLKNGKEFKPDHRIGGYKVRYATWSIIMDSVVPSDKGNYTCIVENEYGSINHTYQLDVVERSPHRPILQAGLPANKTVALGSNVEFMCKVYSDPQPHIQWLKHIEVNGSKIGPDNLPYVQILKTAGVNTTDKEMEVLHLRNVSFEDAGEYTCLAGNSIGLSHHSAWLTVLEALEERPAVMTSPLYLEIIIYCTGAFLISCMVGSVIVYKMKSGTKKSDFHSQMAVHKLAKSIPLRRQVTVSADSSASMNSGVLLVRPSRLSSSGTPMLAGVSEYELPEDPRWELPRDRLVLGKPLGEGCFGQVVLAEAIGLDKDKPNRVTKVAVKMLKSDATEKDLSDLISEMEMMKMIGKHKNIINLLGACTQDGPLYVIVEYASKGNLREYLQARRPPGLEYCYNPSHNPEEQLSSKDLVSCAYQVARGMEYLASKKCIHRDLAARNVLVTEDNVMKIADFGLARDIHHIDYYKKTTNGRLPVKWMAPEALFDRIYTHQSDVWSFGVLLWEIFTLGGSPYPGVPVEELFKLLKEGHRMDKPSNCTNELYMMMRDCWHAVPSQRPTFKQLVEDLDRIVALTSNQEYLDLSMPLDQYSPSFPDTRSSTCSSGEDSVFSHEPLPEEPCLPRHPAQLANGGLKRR
Sequence of FGFR3 (P22607 23-806): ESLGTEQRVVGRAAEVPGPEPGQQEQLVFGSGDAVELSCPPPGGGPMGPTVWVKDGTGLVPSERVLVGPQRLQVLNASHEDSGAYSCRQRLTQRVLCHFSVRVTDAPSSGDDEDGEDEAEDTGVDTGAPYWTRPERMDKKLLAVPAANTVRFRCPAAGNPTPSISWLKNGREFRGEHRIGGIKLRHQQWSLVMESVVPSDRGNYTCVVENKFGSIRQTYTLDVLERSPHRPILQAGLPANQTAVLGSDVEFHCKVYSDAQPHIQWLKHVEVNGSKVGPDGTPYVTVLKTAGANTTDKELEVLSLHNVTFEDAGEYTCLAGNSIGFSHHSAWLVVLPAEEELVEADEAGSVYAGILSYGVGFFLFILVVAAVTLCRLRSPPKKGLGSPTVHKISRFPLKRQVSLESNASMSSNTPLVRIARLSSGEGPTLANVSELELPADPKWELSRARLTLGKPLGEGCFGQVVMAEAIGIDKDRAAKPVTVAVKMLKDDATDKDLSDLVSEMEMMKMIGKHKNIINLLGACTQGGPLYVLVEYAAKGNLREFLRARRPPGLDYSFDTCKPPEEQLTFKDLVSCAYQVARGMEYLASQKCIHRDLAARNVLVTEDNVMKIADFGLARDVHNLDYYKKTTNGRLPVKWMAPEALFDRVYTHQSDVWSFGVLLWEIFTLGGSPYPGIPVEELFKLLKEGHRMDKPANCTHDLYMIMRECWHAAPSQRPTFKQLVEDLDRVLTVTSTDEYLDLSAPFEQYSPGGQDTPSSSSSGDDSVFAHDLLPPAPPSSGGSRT

Take `COc1cc(OC)cc(N2Cc3cnc4[nH]ccc4c3N(C)C2=O)c1` [Example 1, 3-(3,5-Dimethoxyphenyl)-1-methyl-1,3,4,7-tetrahydro-2H-pyrrolo[3′,2′:5,6]pyrido[4,3-d]pyrimidin-2-one]: the IC50 against FGFR1, against FGFR2 and against FGFR3 was less than 100 nM each time.

For `COc1cc(OC)cc(N2Cc3cnc4[nH]ccc4c3NC2=O)c1` [Example 2, 3-(3,5-Dimethoxyphenyl)-1,3,4,7-tetrahydro-2H-pyrrolo[3′,2′:5,6]pyrido[4,3-d]pyrimidin-2-one], the IC50 at FGFR1, against FGFR2 and at FGFR3 was less than 100 nM each time.

For the compound `CCN1C(=O)N(c2cc(OC)cc(OC)c2)Cc2cnc3[nH]ccc3c21` [Example 3, 3-(3,5-Dimethoxyphenyl)-1-ethyl-1,3,4,7-tetrahydro-2H-pyrrolo[3′,2′:5,6]pyrido[4,3-d]pyrimidin-2-one], the IC50 at FGFR1, at FGFR2 and against FGFR3 was less than 100 nM throughout.

Turning to `COc1cc(OC)cc(N2Cc3cnc4[nH]ccc4c3N(C3CC3)C2=O)c1` [Example 4, 1-Cyclopropyl-3-(3,5-dimethoxyphenyl)-1,3,4,7-tetrahydro-2H-pyrrolo[3′,2′:5,6]pyrido[4,3-d]pyrimidin-2-one], the IC50 against FGFR1, on FGFR2 and against FGFR3 was less than 100 nM each time.

As to `COc1cc(OC)cc(N2Cc3cnc4[nH]ccc4c3N(CC3CC3)C2=O)c1` [Example 5, 1-(Cyclopropylmethyl)-3-(3,5-dimethoxyphenyl)-1,3,4,7-tetrahydro-2H-pyrrolo[3′,2′:5,6]pyrido[4,3-d]pyrimidin-2-one], the IC50 at FGFR1, against FGFR2 and against FGFR3 was less than 100 nM throughout.

On to `COc1cc(OC)cc(N2Cc3cnc4[nH]ccc4c3N(Cc3ccccc3)C2=O)c1` [Example 6, 1-Benzyl-3-(3,5-dimethoxyphenyl)-1,3,4,7-tetrahydro-2H-pyrrolo[3′,2′:5,6]pyrido[4,3-d]pyrimidin-2-one], for which the IC50 against FGFR1, against FGFR2 and against FGFR3 was less than 100 nM throughout.

`COc1cc(OC)cc(N2Cc3cnc4[nH]c(-c5ccc(N6CCN(C)CC6)cc5)cc4c3N(C)C2=O)c1` [Example 10, 3-(3,5-Dimethoxyphenyl)-1-methyl-8-[4-(4-methylpiperazin-1-yl)phenyl]-1,3,4,7-tetrahydro-2H-pyrrolo[3′,2′:5,6]pyrido[4,3-d]pyrimidin-2-one]: the IC50 at FGFR1, on FGFR2 and against FGFR3 was less than 100 nM each time.

Regarding `COc1cc(OC)c(F)c(N2Cc3cnc4c(c3N(C)C2=O)C2(CC2)C(=O)N4)c1F` [Example 59, 3′-(2,6-Difluoro-3,5-dimethoxyphenyl)-1′-methyl-4′,7′-dihydrospiro[cyclopropane-1,9′-pyrrolo[3′,2′:5,6]pyrido[4,3-d]pyrimidine]-2′,8′(1′H,3′H)-dione], the IC50 on FGFR2 and against FGFR3 was less than 100 nM throughout.

For `COc1cc(OC)c(F)c(N2Cc3cnc4c(c3N(c3cccc(F)c3F)C2=O)CC(=O)N4)c1F` [Example 77, 3-(2,6-difluoro-3,5-dimethoxyphenyl)-1-(2,3-difluorophenyl)-3,4,7,9-tetrahydro-1H-pyrrolo[3′,2′:5,6]pyrido[4,3-d]pyrimidine-2,8-dione], the IC50 on FGFR2 and against FGFR3 was less than 100 nM in each case.

Turning to `COc1cc(OC)c(F)c(N2Cc3cnc4c(c3N(c3ccc(C#N)cc3)C2=O)CC(=O)N4)c1F` [Example 122, 4-[3-(2,6-difluoro-3,5-dimethoxyphenyl)-2,8-dioxo-2,3,4,7,8,9-hexahydro-1H-pyrrolo[3′,2′:5,6]pyrido[4,3-d]pyrimidin-1-yl]benzonitrile], the IC50 against FGFR2 and at FGFR3 was less than 100 nM throughout.

One may read the IC50 as the concentration that gives 50% inhibition. A low value points to inhibition by little substance.

Source of the values: patent publication US9611267B2, “Substituted tricyclic compounds as FGFR inhibitors” (Incyte Corporation, priority 2012, dated 2017).
